The source of these data is PMC6285983, “Novel broad spectrum virucidal molecules against enveloped viruses” (PLoS ONE, 2018).

For series [1], the system named is HPV-16. Nature of the series: HPV-16 inhibition assay on HeLa cells. Format: cell-based, HPV-16 pseudovirions. As to the method:
(§1) HeLa cells were plated in 96-well plates. […] The GFP-expressing infected cells were observed under an inverted Zeiss LSM510 fluorescence microscope (Zeiss, Oberkochen, Germany) and the percentages of infection were calculated by comparing GFP positive cells in treated and untreated wells.

Series [2] concerns HSV-2. Nature of the series: Time of addition: pretreatment of cells before HSV-2 infection. Format: cell-based. The note with it: compound on cells 2 h before infection, then removed. The protocol: We performed assays aimed at better understanding the mechanism of action. In the pretreatment assay compound 9d was added on cells before the virus in order to determine if the antiviral activity was due to an interaction with the cells. Moreover, an assay was conducted adding virus and compound on cells without the preincubation performed in previous assays.
Fig 4 Time of addition assays. Compound 9d was added on cells 2 h before infection (PRE-TREATMENT CELLS) and subsequently the inocula were removed and cells were infected or compound and virus were added simultaneously on cells (DURING INFECTION) or after 1 h pre-incubation between the virus and the compound (PRE-TREATMENT VIRUS). Cells were fixed and stained 24 h later and plaques were counted.
Pretreatment: cells were pretreated for 2 h at 37°C with increasing concentrations of compounds, the inocula were then removed, cells washed and HSV-2 was added on cells for 2 h at 37°C. Subsequently the same protocol described above was followed.

Series [3] has as its system HSV-2. Nature of the series: HSV-2 plaquing efficiency assay, compound preincubated with virus 1 h at 37°C. Format: cell-based. The following applies: Human alphaherpesvirus 2, HSV-2, Vero cells, 1 h pre-incubation virus/compound.
Series [4] has as its system HSV-2. Nature of the series: Entry assay. Format: cell-based. The note with it: 10 μM, HSV-2 MOI 10. As to the method: Since the observed irreversible effect can be exerted at different stages of viral infection, we investigated more in detail if compound 9d produced a physical disruption of the virus, thus preventing its attachment to the cells or a successive irreversible modification. We performed entry and binding assays, evaluating the amount of bound virus through immunostaining or qPCR. […] On the contrary, when entry assays were performed, it was possible to observe a reduction in the amount of virus associated to the cells (Fig 7D). With this assay, the signal from the virus could be related to virus in the cytoplasm or blocked in the endosomes, since the treatment with acidic glycine is affecting only the virus at the surface of the cell. […]
Cells were plated on coverslips and the following day the binding or entry protocol described above was applied. […] Rhodamine conjugated anti-rabbit (Santa Cruz) was then added on cells for 1 h at 37°C following 3 washes coverslips were mounted on microscope glasses and observed with Zeiss LSM510 fluorescence microscope (Zeiss, Oberkochen, Germany) and images were acquired.

For series [5], the system named is HSV-2. Nature of the series: Viral yield reduction, post treatment. The following applies: Human alphaherpesvirus 2.
Series [6] has as its system Ad5. Nature of the series: Ad5 inhibition assay on HeLa cells. Type of series: cell-based, Adenovirus 5. As to the method: as §1
Series [7] relates to HSV-2 acyclovir resistant strain. The experiment in a line: microbe, parasite or virus in culture. Type of series: cell-based.
Series [8] relates to ZIKV. Nature of the series: ZIKV plaquing efficiency assay. Type of series: cell-based, Zika virus (PRVABC59). The following applies: Zika virus, ZIKAV.
Series [9] deals with HSV-2. The experiment in a line: Virucidal assay. Format: cell-based. The following applies: for viral infectivity: 10 μM of compound.
Series [10] deals with HSV-2. The experiment in a line: Time of addition: during infection, no preincubation. Format: cell-based. The following applies: Human alphaherpesvirus 2; during-infection assay, virus and compound added simultaneously.
Series [11] is described as follows: in vitro. The note with it: African green monkey.
Series [12] in a line: In vitro lipoperoxidation test (TBA assay, MDA). The following applies: DPPC liposomes, 37°C, 30 minutes.
Series [13] can be described thus: Cell viability MTS assay on Vero cells. The note with it: African green monkey. For orientation: Formazan colour is commonly taken as a measure of viable cells.

In general, EC50 refers to the concentration that produces a half-maximal response. What is called EC90 is the concentration at which the effect reaches the 90% level. Usually melting point stands for the temperature, or range, at which the solid turns liquid. Take `CC(C)c1ccc(CCN2C(=O)/C(=C/c3ccc(-c4ccc(C(=O)O)c(O)c4)o3)SC2=S)cc1` [Compound 9d, (Z)-2-hydroxy-4-(5-((3-(4-isopropylphenethyl)-4-oxo-2-thioxothiazolidin-5-ylidene)methyl)furan-2-yl)benzoic acid]: the melting point is 259 °C (dec.). Besides, the “antiviral activity against non-enveloped virus” value in series [1] is “inactive”. Further, the “antiviral activity in pre-treatment assay” value in series [2] is on record as “not active”. Moreover, in series [3] (plaques at 24 h, read-out: EC50 (95% C.I.)), the EC50 is 0.00655 µM. The EC90 in [3] (read-out: EC90 (95% C.I.)) was determined as 0.04 µM. In series [4], the “amount of virus associated to the cells” value was “reduction”. In series [5], a half-maximal effect (EC50) was put at 0.0339 µM. Moreover, the “antiviral activity against non-enveloped virus” value in series [6] is “inactive”. Moreover, in series [7] (Human alphaherpesvirus 2, read-out: EC50 (95% C.I.)), the EC50 was 0.0016 µM. For the same molecule, in series [7] (Human alphaherpesvirus 2, read-out: EC90 (95% C.I.)), the 90% effect concentration (EC90) stood at 0.0243 µM. Also, the EC50 in series [8] (read-out: EC50 (95% C.I.)) is 0.0699 µM. In series [8] (read-out: EC90 (95% C.I.)), the EC90 came to 0.147 µM. Also, the viral infectivity entry in series [9] (15' post treatment) is “decreased”. Further, the viral infectivity result in [9] (from 30' on) is reported as “completely abrogated”. Further, in series [9] (1h incubation, then diluted for additional 1, 2, 3 or 4 hours), the “infectivity after dilution in drug free medium” value is “not regained”. For the same molecule, the EC50 in series [9] (Human alphaherpesvirus 2, virucidal assay, 1h of exposure, 10^5 pfu HSV-2) worked out at 0.0373 µM. It took 0.147 µM to reach a half-maximal effect in series [10] (EC50). The molecule further registered a CC50 in series [11] of 24.8 µM. Also, the “lipid peroxidation of linoleic acid (MDA)” value in series [12] was “remarkable lipid peroxidation”. The CC50 in [13] (CC50, Vero cells, MTS) was 2.09 µM. For the same molecule, in series [13] (CC50, Vero cells, after 96h exposure), the CC50 at 96 h was determined as 2.09 µM. The same molecule yielded a CC50 in series [13] (CC50, conditions of HSV-1 assay) of 2.09 µM. The molecule also displayed a CC50 in series [13] (CC50, conditions of HSV-2 acyclovir resistant assay) of 2.09 µM. Also, the CC50 in [13] (CC50, conditions of ZIKAV assay) came out at 8.85 µM.
